Laboratory results from patent US11985932B2 (priority 2019, dated 2024).

Key:
WRKY45 gene = test: RNA-seq of probenazole-treated rice callus (WRKY45 induction); assay type: cell-based, Oryza sativa cv. Nipponbare; conditions: 7th day after probenazole treatment (50, 100 or 150 μM) on dedifferentiation-inducing medium
[1] = test system: Pseudomonas syringae pv. tabaci; test: Pseudomonas syringae pv. tabaci inoculation of Nicotiana benthamiana leaves, CFU; assay type: in vivo; conditions: R0 plant of Nicotiana benthamiana of callus treated with probenazole
Botrytis cinerea [2] = test: Botrytis cinerea inoculation of Nicotiana benthamiana leaves, lesion area; assay type: in vivo
Botrytis cinerea [3] = test: Botrytis cinerea inoculation of tomato leaves, lesion area; assay type: in vivo; conditions: regenerated tomato (Micro-Tom) lines, callus treated with 200 μM probenazole; vs WT
rice callus = test: Callus survival and redifferentiation under probenazole treatment
[4] = test system: rice blast fungus (Magnaporthe grisea strain K-06); assay type: in vivo; conditions: for hyphal elongation of rice blast fungus in the leaf sheath / blast resistance: progeny (third generation; R2) of treated lines, 150 μM (salicylic acid 1 mM), vs Nipponbare, FIG. 11B; for hyphal elongation of Magnaporthe oryzae in the leaf sheath / disease resistance: regenerated rice individuals, callus treated at 150 μM (salicylic acid 1 mM), P<0.05, FIG. 11A

| Structure (SMILES) | expression of the WRKY45 gene in callus (WRKY45 gene) | growth of Pseudomonas syringae pv. tabaci [1] | Botrytis cinerea resistance (Botrytis cinerea [2]; R1, self-fertilized progeny of R0, Nicotiana benthamiana) | expansion of lesions of Botrytis cinerea (Botrytis cinerea [2]; current generation (R0) of regenerated Nicotiana benthamiana, callus treated with 200 μM probenazole 7 to 21 days, vs wild type) | lesion expansion of Botrytis cinerea in tomato leaves (Botrytis cinerea [3]) | number of meristems formed in callus and appearance rate of regenerated plants (rice callus; compared to control not treated with probenazole) | redifferentiation from callus (rice callus; probenazole treatment in dedifferentiation or redifferentiation process) | callus survival rate (rice callus; probenazole-treated rice callus vs control callus) [%] | hyphal elongation of rice blast fungus in the leaf sheath / blast resistance [4] | hyphal elongation of Magnaporthe oryzae in the leaf sheath / disease resistance [4] |
| --- | --- | --- | --- | --- | --- | --- | --- | --- | --- | --- |
| C=CCOC1=NS(=O)(=O)c2ccccc21 [probenazole, 3-prop-2-enoxy-1,2-benzothiazole 1,1-dioxide] | induced | markedly suppressed | Significant Botrytis cinerea resistance | significantly suppressed | significantly suppressed | no significant difference | not inhibited | 100 | significant blast resistance | significant disease resistance |
| Cc1ccc(NC(=O)c2snnc2C)cc1Cl [tiadinil] | – | – | – | – | – | – | – | – | significant blast resistance | significant disease resistance |
| O=C(O)c1ccccc1O [salicylic acid] | – | – | – | – | – | – | – | – | significant blast resistance | significant disease resistance |
| CSC(=O)c1cccc2nnsc12 [acibenzolar S-methyl] | – | – | – | – | – | – | – | – | significant blast resistance | significant disease resistance |
| N#Cc1ccccc1NC(=O)c1snc(Cl)c1Cl [isothianil, isotianil] | – | – | – | – | – | – | – | – | significant blast resistance | significant disease resistance |
